What was measured:
[1] = tested on: lymph node cells from FVIII-DR2+ mice; experiment: Recall responses of lymph node cells from FVIII-DR2+ mice primed with rhFVIII/CFA to the peptide panel; type: cell-based; conditions: FVIII-DR2+ animals immunised with factor VIII in adjuvant; FIG. 3
Source text: HLA-DR2 transgenic mice were crossed with factor VIII deficient mice to create a model of haemophilia expressing the human HLA class II MHC molecule.
These FVIII-DR2+ animals were immunised with factor VIII in adjuvant. Draining lymph nodes were isolated and tested for their response to the peptide panel.
The same method was followed as for (i), except the mice were FVIII-deficient, HLA-DR2+ and murine MHC class II null.

[2] = tested on: HLA-DR2 restricted cells from factor VIII immunised mice; experiment: Recall responses (proliferation) of lymph node cells from FVIII+DR2+ mice primed with rhFVIII/CFA to FVIII peptides; type: cell-based; conditions: FVIII+DR2+ mice immunised with human factor VIII in adjuvant; LNC restimulated in vitro with peptide; FIG. 1
T-cell hybridomas [3] = experiment: FVIII peptide specificity of T cell hybridomas generated from FVIII-/- HLA-DR2+ mice (IL-2 production); type: cell-based; conditions: of 19 hybridomas specific for factor VIII; factor VIII deficient HLA-DR2 mice
Source text: Factor VIII deficient mice expressing HLA-DR2 were immunised with factor VIII in adjuvant. Spleen cells from the immunised mice were restimulated in vitro with factor VIII and the resulting lymphoblasts were fused with BW5147, as described above. T-cell hybridomas were screened for their response to the 12 predicted peptides. Yet again, the majority of hybridomas responded to peptides DNIMV (SEQ ID NO:72) and PRCLT (SEQ ID NO:70). Of 19 hybridomas specific for factor VIII, 10 responded to DNIMV (SEQ ID NO:72), 6 to PRCLT (SEQ ID NO:70), 1 to PPIIA (SEQ ID NO:65), 1 to SLYIS (SEQ ID NO:64) and 1 to DTLLI (SEQ ID NO:69).
(§1) HLA-DR2+ murine MHC class II null mice were immunised as above. On day 10 draining lymph nodes were removed and lymphocytes cultured at 2.5×10^6 cells/ml, 1 ml/well in 24 well plates in the presence of 20 μg/ml rhFVIII for 3 days. Following this stimulation, lymphocytes were recovered, washed and fused with TCRα^−β^− BW fusion partner cells at a ratio of 4 BW cells to 1 lymphocyte, using polyethylene glycol as described by Nelson et al (1980) PNAS 77(5):2866. Fused cells were carefully washed and then plated out in flat bottomed 96 well plates for 2 days before the addition of HAT medium to select for T cell hybridomas. Cells were monitored for growth and approximately 10 days after fusions were performed, individual clones were selected and transferred to 24 well plates in HAT medium. Clones were maintained in HAT medium for at least 2 weeks before being weaned into HT medium and then complete medium. Clones were tested for antigenic specificity by culturing 100 μl of hybridoma cells with 5×10^4 Mgar cells in the presence and absence of 20 μg/ml rhFVIII overnight. Supernatants were then collected and assessed for IL-2 production by ELISA, with clones producing IL-2 in response to rhFVIII being considered positive for FVIII-specificity. To investigate the repertoire of predicted FVIII peptides FVIII-specific clones were again tested for IL-2 production, following overnight incubation with 20 μg/ml of each of the 12 peptides.
The same method was followed as for (ii), except the mice were FVIII-deficient and HLA-DR2+.

T-cell hybridomas [4] = experiment: FVIII peptide specificity of T cell hybridomas generated from DR2+ mice (IL-2 production); type: cell-based; conditions: for Number of hybridomas responding to peptide: of the 27 hybridomas screened, HLA-DR2 mice, 20 μg/ml peptide, IL-2
Source text: HLA-DR2 mice were first immunised with factor VIII in adjuvant. Spleen cells from immune mice were restimulated in vitro with factor VIII and the resulting lymphoblasts were fused with the BW5147 thymoma using polyethylene glycol.
T-cell hybridomas were selected in HAT medium and the hybridomas cloned and tested for their response to factor VIII. The hybridomas were then screened for their response to the 12 predicted peptides.
as §1

HLA-DR2 transgenic mice = experiment: Tolerisation of FVIII-specific responses in DR2+ mice by pre-treatment with peptide; type: in vivo; conditions: 3x i.p. 100 μg peptide prior to priming with rhFVIII/CFA, vs PBS, FIG. 6
Method: HLA-DR2 transgenic mice were treated with either of the two soluble peptides, or PBS as a control, prior to immunisation with factor VIII in adjuvant. Draining lymph nodes were isolated and the cells restimulated in vitro with factor VIII protein in order to assess the immune status of the mice.
HLA-DR2+ murine MHC class II null mice were treated 3 times with 100 μg of DNIMV (SEQ ID NO:72), PRCLT (SEQ ID NO:70) or PPIIA (SEQ ID NO:65) dissolved in PBS, or the equivalent volume of PBS alone. Peptides were administered intraperitoneally, with 3-4 days between each dose. Following the final administration, mice were primed with rhFVIII emulsified in complete Freunds adjuvant as for (i). 10 days later, draining lymph nodes were recovered and lymphocytes subsequently cultured in vitro with rhFVIII, or each of the tolerising peptides as well as control antigens, for 72 hours before the addition of tritiated thymidine as for (i).

[5] = tested on: fixed Mgar cells / FVIII-/- T cell hybridoma clones; experiment: Presentation by fresh or fixed Mgar cells to hybridoma clones (antigen processing-independent presentation, IL-2 ELISA); type: cell-based; conditions: 20 μg/ml, overnight, Mgar cells fresh or fixed with 1% paraformaldehyde, IL-2 by ELISA; FIG. 5
Method: In order to be an antigen processing-independent epitope, a peptide must be capable of binding to an MHC class I or II molecule without further antigen processing (i.e. trimming) and be presented to a T cell. In the present case, the capacity of peptides to be presented by fixed APC was investigated.
Mgar cells were either fresh or fixed with 1% paraformaldehyde. Clones were tested for antigenic specificity by culturing 100 μl of hybridoma cells with 5×10^4 Mgar cells in the presence and absence of 20 μg/ml rhFVIII or peptide epitopes overnight. Supernatants were then collected and assessed for IL-2 production by ELISA.

Sequence	Response of lymph node cells to peptide [1]	Response of lymph node cells to peptide (LNC proliferation) [2]	Number of hybridomas responding to peptide (T-cell hybridomas [3])	Number of hybridomas responding to peptide (T-cell hybridomas [4])	Immune response to factor VIII after peptide pre-treatment (LNC recall response) (HLA-DR2 transgenic mice)	Presentation by live and fixed Mgar cells [5]	Quality of hybridoma response to peptide (T-cell hybridomas [4]; HLA-DR2 mice hybridomas)
PRCLTRYYSSFVNME	responded well	responses	6	3	substantial suppression of the immune response to factor VIII	presented by both live and fixed Mgar cells	–
SLYISQFIIMYSLDG [FVIII first AA 2114]	–	–	1	–	–	–	–
DTLLIIFKNQASRPY	–	–	1	–	–	–	–
RYLRIHPQSWVHQIA [FVIII first AA 2322]	significant response	–	–	–	–	–	–
DNIMVTFRNQASRPY	responded well	respond strongly	10	11	substantial suppression of the immune response to factor VIII	presented by both live and fixed Mgar cells	–
PPIIARYIRLHPTHY [FVIII first AA 2161]	–	responses	1	3	–	–	weaker and less specific
GTLMVFFGNVDSSGI [FVIII first AA 2140]	weak response	–	–	–	–	–	–

From patent publication US8445448B2, “FVIII peptides and their use in tolerising haemophiliacs” (Apitope International NV, priority 2007, dated 2013)
